These results are taken from US20250041327A1, “COMPOSITIONS FOR PREVENTING OR FOR REDUCING RISK OF […] INFECTIOUS DISEASES” (priority 2021, published 2025).

One assay has as its system ZO-1. It is filed as cell-based, human. Conditions: A549 cells, EPS pre-treatment study; BXA 250 nM; viral-infection vs non-viral infection group.
The next assay has as its system occludin. It is filed as cell-based, human. Conditions: A549 cells, EPS pre-treatment study; BXA 250 nM; viral-infection vs non-viral infection group.
In another assay the test system is claudin-1. In kind it is cell-based, human. Conditions: A549 cells, EPS pre-treatment study; BXA 250 nM; viral-infection vs non-viral infection group.
In a further assay the test system is E-cadherin. In kind it is cell-based, human. Conditions: A549 cells, EPS pre-treatment study; BXA 250 nM; viral-infection vs non-viral infection group.
Another assay deals with ICAM-1. It is filed as cell-based, human. Conditions: infected A549 cells, 1×10^5 pfu virus; BXA 250 nM.
Another assay has as its system VCAM-1. It is filed as cell-based, human. Conditions: infected A549 cells, 1×10^5 pfu virus; BXA 250 nM.
In another assay the test system is fibronectin. It is filed as cell-based, human. Conditions: infected A549 cells, 1×10^5 pfu virus; BXA 250 nM.
The test system of another assay is PAF-r. It is filed as cell-based, human. Conditions: infected A549 cells, 1×10^5 pfu virus; BXA 250 nM.
The subject of a further assay is E-selectin. In kind it is cell-based, human. Conditions: infected A549 cells, 1×10^5 pfu virus; BXA 250 nM.
Assay [1] concerns S. aureus strain ATCC 29213. It is filed as cell-based. Conditions: 1×10^5 pfu virus, 1×10^5 cfu S. aureus for 1 hour; 400 μg EPS or 250 nM BXA per well; compared with virus-infected cells without treatment.
The test system of another assay is CEACAM-1. The experiment in a line: CEACAM-1 mRNA expression in virus-infected A549 cells (quantitative RT-PCR). Conditions: 1×10^5 pfu virus, 1 hour with EPS then 6 hours, BXA 250 nM, compared with virus-infected cells.

For `O=C1c2c(O)c(=O)ccn2N([C@@H]2c3ccccc3SCc3c2ccc(F)c3F)[C@@H]2COCCN12` [BXA, baloxavir acid], the “ZO-1 mRNA expression” value in the assay with ZO-1 was “no difference”. The “occludin mRNA expression” value with occludin is listed as “no difference”. Further, in the assay on claudin-1, the “claudin-1 mRNA expression” value was “no difference”. In addition, the “E-cadherin mRNA expression” value in the assay on E-cadherin was “no difference”. The “ICAM-1 mRNA expression” value with ICAM-1 is recorded as “not changed”. The “VCAM-1 mRNA expression” value in the assay on VCAM-1 is on record as “not changed”. Also, the “fibronectin mRNA expression” value with fibronectin is listed as “not changed”. Also, in the assay with PAF-r, the “PAF-r mRNA expression” value is “not changed”. In addition, the “E-selectin mRNA expression” value in the assay with E-selectin is “not changed”. In [1], the “numbers of adhered bacteria on virus-infected A549 cells” value is listed as “did not decrease”. Also, the “CEACAM-1 mRNA expression increased by influenza virus infection” value with CEACAM-1 is reported as “significantly reduced”.
